Experimental data from US20230203041A1, “ANTAGONISTS OF THE ADENOSINE A2A RECEPTOR” (AdoRx Therapeutics Limited, priority 2020, published 2023).

Assays:
[1] = clinical trials, preliminary data, cited from earlier work
[2] = target: programmed death receptor-1 (PD-1) (Homo sapiens, UniProt Q15116); conditions: cited from earlier work
[3] = system: solid tumors; conditions: Rutkowski et al. 2019; cited from earlier work
[4] = target: T1, human Adenosine A2a receptor (Homo sapiens, UniProt P29274); assay: Adenosine receptor TR-FRET binding assay (CA200645 displacement), A2a; conditions: 100 nM CA200645, CHO cell membranes, 2 hours at room temperature
T1 construct: expressed in transfected cells; host or cells: CHO cell membranes
Procedure: (§1) All FRET binding experiments were conducted at room temperature in white 384-well plates, in assay binding buffer containing 1×LabMed (Cisbio, France), 100 μg/mL saponin, 1% DMSO and 0.02% pluronic acid. Binding of the fluorescently labelled Adenosine receptor antagonist XAC (CA200645, FRET acceptor) to terbium-labelled A1, A2a, A2b and A3 adenosine receptors (FRET donors) was detected by time-resolved FRET due to the close proximity of the donor and acceptor in a binding event. To investigate the ability of unlabelled test compounds to bind to Adenosine A1, A2a, A2b and A3 receptors, dose response curves were constructed that determined the ability of a range of concentrations to inhibit the binding of 30 nM CA200645 to the A2b receptor and 100 nM CA200645 to the A1, A2a, and A3 receptor.
(§2) Serial dilution (1:3 dilutions) of test compounds in neat DMSO and transfer of a 400 nL sample of test compound into the assay plate was carried out using the Mosquito (TTP Labtech, UK). The compound samples were incubated for 2 hours at room temperature with a fixed concentration of CA200645 defined for each receptor (see above) and CHO cell membranes containing the human Adenosine A1 (0.5 μg/well), A2a (0.3 μg/well), A2b (1 μg/well) or A3 (1 μg/well) receptor in 40 μL of assay buffer. Total and non-specific binding of CA200645 was determined in the absence and presence of 10 μM XAC, respectively. Following 2 hours incubation, the level of CA200645 binding was detected on a Pherastar FSX (BMG Labtech, Germany) using standard TR-FRET settings. The terbium donor was excited with three laser flashes at a wavelength of 337 nm, and donor and acceptor emission was detected at 620 nm and 665 nm wavelengths, respectively. FRET ratios were obtained by multiplying the acceptor/donor ratio value by 10,000. Specific binding was determined by subtracting the non-specific binding FRET ratio from the total binding FRET ratio. Compound IC50 curves were analysed using GraphPad Prism 7.0 (GraphPad, USA) and Ki affinity values were determined from the obtained IC50 values using the method of Cheng and Prusoff.

[5] = target: T2, human Adenosine A2b receptor (Homo sapiens, UniProt P29275); assay: Adenosine receptor TR-FRET binding assay (CA200645 displacement), A2b; conditions: 30 nM CA200645, CHO cell membranes, 2 hours at room temperature
T2 construct: expressed in transfected cells; host or cells: CHO cell membranes
T2 sequence (P29275 1-332): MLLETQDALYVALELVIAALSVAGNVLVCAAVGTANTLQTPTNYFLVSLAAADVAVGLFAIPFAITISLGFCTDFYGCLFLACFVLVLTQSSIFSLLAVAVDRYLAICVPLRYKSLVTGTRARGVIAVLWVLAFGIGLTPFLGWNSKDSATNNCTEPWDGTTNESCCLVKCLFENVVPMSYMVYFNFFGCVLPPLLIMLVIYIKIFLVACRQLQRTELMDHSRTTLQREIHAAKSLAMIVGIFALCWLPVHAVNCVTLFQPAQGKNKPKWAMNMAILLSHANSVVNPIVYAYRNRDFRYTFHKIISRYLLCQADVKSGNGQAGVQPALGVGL
Procedure: as §1, §2

[6] = system: human PBMCs; assay: CD3/CD28 stimulated IL-2 release NECA reversal assay in human PBMCs; assay type: cell-based; conditions: PBMC, CD3/CD28 antibody stimulated, 1 uM NECA, 24 hours, IL-2 in culture supernatant;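 further: dose-response as % inhibition where 100% equals no-NECA control wells with CD3/CD28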
Procedure, shortened: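 PBMCs from citrated donor blood, 50,000 cells/well on plate-bound CD3 antibody (1 ug/ml), with 1 ug/ml CD28 antibody, 1 uM NECA and antagonist at 0.003-10 μM final. After 24 h at 37° C, supernatant IL-2 was measured by MSD immunoassay.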

[7] = system: CD8+ T cells in human whole blood; assay: Measurement of pCREB in CD8+ T cells in human whole blood; assay type: cell-based; conditions: T-cell, 1 h; heparinised human whole blood, rolipram, 3 μM NECA, 60 min, phospho-CREB in CD8+ T cells by FACS
Procedure, shortened: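 Heparinised human whole blood preincubated 20 min at 37 °C with serially diluted A2a antagonists plus rolipram, then stimulated 60 min with 3 μM NECA (final). After fixation and RBC lysis, permeabilized leukocytes stained for phospho-CREB and CD8; pCREB in CD8+ T cells read by flow cytometry.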

[8] = target: T3, human Adenosine A1 receptor (Homo sapiens, UniProt P30542); assay: Adenosine receptor TR-FRET binding assay (CA200645 displacement), A1
T3 sequence (P30542 1-326): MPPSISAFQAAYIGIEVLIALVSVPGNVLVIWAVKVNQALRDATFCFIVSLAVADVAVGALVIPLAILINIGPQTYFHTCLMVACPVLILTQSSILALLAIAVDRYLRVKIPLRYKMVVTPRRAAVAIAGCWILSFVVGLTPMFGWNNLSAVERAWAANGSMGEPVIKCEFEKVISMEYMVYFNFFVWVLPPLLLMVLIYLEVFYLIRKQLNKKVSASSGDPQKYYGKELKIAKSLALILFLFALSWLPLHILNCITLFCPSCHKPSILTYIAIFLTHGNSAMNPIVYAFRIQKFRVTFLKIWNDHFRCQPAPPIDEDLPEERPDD
Procedure: as §1, §2

[9] = target: T4, human Adenosine A3 receptor (Homo sapiens, UniProt P0DMS8); assay: Adenosine receptor TR-FRET binding assay (CA200645 displacement), A3
T4 sequence (P0DMS8 1-318): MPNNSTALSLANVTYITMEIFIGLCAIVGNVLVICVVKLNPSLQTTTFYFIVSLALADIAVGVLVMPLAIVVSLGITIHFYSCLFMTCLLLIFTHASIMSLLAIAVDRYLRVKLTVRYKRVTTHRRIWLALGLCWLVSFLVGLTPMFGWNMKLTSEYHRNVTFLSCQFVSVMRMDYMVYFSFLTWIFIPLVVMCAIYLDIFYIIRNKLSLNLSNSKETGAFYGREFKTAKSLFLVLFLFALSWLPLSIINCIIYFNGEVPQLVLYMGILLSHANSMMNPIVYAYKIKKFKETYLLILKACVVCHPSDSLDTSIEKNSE

T1 sequence (P29274 whole entry): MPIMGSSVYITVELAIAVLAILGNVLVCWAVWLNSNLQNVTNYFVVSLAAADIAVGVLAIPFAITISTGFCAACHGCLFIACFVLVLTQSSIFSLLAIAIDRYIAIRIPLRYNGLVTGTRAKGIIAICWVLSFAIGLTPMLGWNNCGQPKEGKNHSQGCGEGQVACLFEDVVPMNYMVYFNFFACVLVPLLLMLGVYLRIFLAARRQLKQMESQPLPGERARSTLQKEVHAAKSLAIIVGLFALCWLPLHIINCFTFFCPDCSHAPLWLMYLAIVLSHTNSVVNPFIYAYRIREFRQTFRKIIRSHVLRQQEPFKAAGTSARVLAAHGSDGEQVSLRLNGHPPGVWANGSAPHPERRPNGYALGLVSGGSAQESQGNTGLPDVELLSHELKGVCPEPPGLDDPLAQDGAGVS
Chain of programmed death receptor-1 (PD-1) (Q15116 25-288): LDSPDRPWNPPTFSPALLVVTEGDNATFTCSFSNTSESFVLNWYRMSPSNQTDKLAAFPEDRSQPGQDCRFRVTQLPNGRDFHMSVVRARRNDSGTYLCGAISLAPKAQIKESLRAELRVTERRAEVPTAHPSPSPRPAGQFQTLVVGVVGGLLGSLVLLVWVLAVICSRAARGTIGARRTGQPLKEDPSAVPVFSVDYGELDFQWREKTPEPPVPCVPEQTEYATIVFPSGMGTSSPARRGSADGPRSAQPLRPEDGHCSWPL

| Ki [4] | Ki [5] | IC50 [7] | Ki [8] | Ki [9] | Compound | tolerability ([1]; monotherapy and combination with atezolizumab) | CD8+ T infiltration into tumour tissue ([1]; early indications) | tumour size ([1]; early indications) | binding to PD-1 [2] | activity in solid tumors [3] | IC50 [6] |
| --- | --- | --- | --- | --- | --- | --- | --- | --- | --- | --- | --- |
| 4.2 nM | 13 nM | 1690 nM | 125 nM | > 1000 nM | Cc1cc(-c2c(-c3cccc(C#N)c3)nn3ccc(C(=O)N(C)CC(C)(C)O)nc23)cc(Cl)n1 [Example 6.18, 3-(2-Chloro-6-methyl-4-pyridyl)-2-(3-cyanophenyl)-N-(2-hydroxy-2-methyl-propyl)-N-methyl-pyrazolo[1,5-a]pyrimidine-5-carboxamide] |  |  |  |  |  | 93 nM |
| 0.1 nM | 16 nM | 2860 nM | 477 nM | > 1000 nM | Cc1cc(-c2c(-c3cccc(C#N)c3)nn3ccc(C(=O)NC(C)(C)C)nc23)cc(Cl)n1 [Example 5.1] |  |  |  |  |  | 20 nM |
| 3.4 nM | 177 nM | 350 nM | 575 nM | > 1000 nM | Cc1cc(-c2c(-c3cccc(C#N)c3)nn3ccc(C(=O)NCC(C)(C)O)nc23)cc(C#N)n1 [Example 12.8, 3-(2-Cyano-6-methyl-4-pyridyl)-2-(3-cyanophenyl)-N-(2-hydroxy-2-methyl-propyl)pyrazolo[1,5-a]pyrimidine-5-carboxamide] |  |  |  |  |  | 35 nM |

The next lines start with the compound.

| Compound | Ki [4] | Ki [5] | IC50 [7] | Ki [8] | Ki [9] | tolerability ([1]; monotherapy and combination with atezolizumab) | CD8+ T infiltration into tumour tissue ([1]; early indications) | tumour size ([1]; early indications) | binding to PD-1 [2] | activity in solid tumors [3] | IC50 [6] |
| --- | --- | --- | --- | --- | --- | --- | --- | --- | --- | --- | --- |
| Cc1ccc(-c2nc(N)nc3c2nnn3Cc2cccc(CO[C@H]3CCOC3)n2)o1 [CPI-444] |  |  |  |  |  | well tolerated | enhancing CD8+ T infiltration into tumour tissue | reducing tumour size |  |  |  |
| Cetrelimab: a fully human immunoglobulin (Ig) G4 kappa monoclonal antibody that binds to programmed death receptor-1 (PD-1) with high affinity and specificity |  |  |  |  |  |  |  |  | high affinity and specificity | activity in solid tumors |  |
| Cc1cc(-c2c(-c3cccc(C#N)c3)nn3ccc(C(=O)NCC(C)(O)CO)nc23)cc(C)n1 (centres unmarked) [Example 92.1] | 0.5 nM | 4 nM | 110 nM | 222 nM | > 1000 nM |  |  |  |  |  | 14 nM |
| Cc1cc(-c2c(-c3cccc(C#N)c3)nn3ccc(N[C@@H]4COC[C@@H]4O)nc23)cc(Cl)n1 [Example 2.16] | 2.1 nM | 4 nM | 390 nM | 232 nM | > 1000 nM |  |  |  |  |  | 7 nM |
| Cc1cc(-c2c(-c3cccc(C#N)c3C)nn3ccc(C(=O)NCC(C)(C)O)nc23)cc(Cl)n1 [Example 102, 3-(2-Chloro-6-methyl-4-pyridyl)-2-(3-cyano-2-methyl-phenyl)-N-(2-hydroxy-2-methyl-propyl)pyrazolo[1,5-a]pyrimidine-5-carboxamide] | 0.5 nM | 32 nM | 140 nM | 233 nM | > 1000 nM |  |  |  |  |  | 16 nM |
| Cc1cc(-c2c(-c3cccc(C#N)c3)nn3ccc(N)nc23)cc(Cl)n1 [Example 1.4, 3-[5-Amino-3-(2-chloro-6-methyl-4-pyridyl)pyrazolo[1,5-a]pyrimidin-2-yl]benzonitrile] | 2.6 nM | 4 nM | 590 nM | 66 nM | > 1000 nM |  |  |  |  |  | 37 nM |
| Cc1cc(-c2c(-c3cccc(C#N)c3)nn3ccc(NC[C@H](C)O)nc23)cc(Cl)n1 [Example 3.1] | 2.2 nM | 5 nM | 560 nM | 58 nM | 2600 nM |  |  |  |  |  | 23 nM |
